Reference: DBAASP
Converted amounts (≈) assume the structure as drawn.

How the values were obtained:
Test in all cases: ≥ marks a high value that may be exact or a test limit, other limits are often not marked, values filed in µg/mL are converted to µM
[1] = tested on: Aureobasidium pullulans
[2] = tested on: Bacillus subtilis ATCC 23857
[3] = tested on: Bacillus megaterium
[4] = tested on: Candida albicans ATCC 10231
[5] = tested on: Pseudomonas aeruginosa ATCC 27853
[6] = tested on: Staphylococcus aureus ATCC 9144
[7] = tested on: Corynebacterium glutamicum ATCC 13032
[8] = tested on: Micrococcus luteus
[9] = tested on: Escherichia coli ATCC 25922
[10] = tested on: Escherichia coli SBS 363
[11] = tested on: Staphylococcus aureus ATCC 29213
[12] = tested on: Escherichia coli O157:H7 ATCC 43895

MIC [1]	MIC [2]	MIC [3]	MIC [4]	MIC [5]	MIC [6]	MIC [7]	MIC [8]	MIC [9]	MIC [10]	MIC [11]	MIC [12]	SMILES
≥ 54.6 µM	≥ 109 µM	3.41 µM (≈ 3.9 µg/mL)	109 µM (≈ 125 µg/mL)	> 218 µM	≥ 218 µM	27.3 µM (≈ 31.3 µg/mL)	≥ 218 µM	> 218 µM				C[C@H](NC(=O)[C@H](CCCCN)NC(=O)[C@H](Cc1c[nH]c2ccccc12)NC(=O)CNC(=O)CNC(=O)[C@H](Cc1c[nH]c2ccccc12)NC(=O)[C@H](CCCCN)NC(=O)[C@H](CCCCN)NC(=O)CN)C(=O)N[C@@H](CCCCN)C(N)=O [GKKWGGWKAK]
								> 250 µM	≥ 250 µM	> 250 µM		CC(C)C[C@H](NC(=O)CN)C(=O)N[C@@H](Cc1ccccc1)C(=O)N[C@@H](CCCCN)C(=O)NCC(=O)N[C@@H](CCCCN)C(=O)N[C@@H](CCCCN)C(=O)N[C@@H](CCCCN)C(=O)N[C@@H](CC(N)=O)C(=O)N[C@@H](CCCCN)C(=O)N[C@@H](CCCCN)C(=O)N[C@H](C(=O)N[C@@H](CCCCN)C(N)=O)[C@@H](C)O [GLFKGKKKNKKTK]
≥ 237 µM	≥ 237 µM	≥ 237 µM	> 237 µM	> 237 µM	≥ 237 µM	≥ 237 µM	≥ 237 µM	> 237 µM				C[C@H](NC(=O)[C@H](CCCCN)NC(=O)[C@H](Cc1c[nH]c2ccccc12)NC(=O)CNC(=O)CNC(=O)[C@@H]1CCCN1C(=O)[C@H](CCCCN)NC(=O)[C@H](CCCCN)NC(=O)CN)C(=O)N[C@@H](CCCCN)C(N)=O [GKKPGGWKAK]
											8 µM (≈ 22.9 µg/mL)	CC(C)C[C@H](NC(=O)[C@H](C)N)C(=O)N[C@@H](Cc1c[nH]c2ccccc12)C(=O)N[C@@H](CCCCN)C(=O)N[C@H](C(=O)N[C@@H](CC(C)C)C(=O)N[C@@H](CC(C)C)C(=O)N[C@@H](CCCCN)C(=O)N[C@@H](CCCCN)C(=O)N[C@H](C(=O)N[C@@H](CC(C)C)C(=O)N[C@@H](CCCCN)C(=O)N[C@@H](C)C(=O)N[C@@H](C)C(=O)N[C@@H](C)C(=O)N[C@@H](CCCCN)C(=O)N[C@@H](C)C(=O)N[C@@H](C)C(=O)N[C@@H](CC(C)C)C(=O)N[C@@H](CCCCN)C(=O)N[C@@H](C)C(=O)N[C@H](C(=O)N[C@@H](CC(C)C)C(=O)N[C@H](C(=O)NCC(=O)N[C@@H](C)C(=O)N[C@@H](CC(N)=O)C(=O)N[C@@H](C)C(N)=O)C(C)C)C(C)C)C(C)C)[C@@H](C)O [ALWKTLLKKVLKAAAKAALKAVLVGANA]
